From US9302999B2, “Substituted triazoles as herbicides” (E. I. DU PONT DE NEMOURS AND COMPANY, priority 2012, dated 2016)
Read-outs that look alike come from different tables or passages of the source.

Legend:
Format in all cases: in vivo
[1] = tested on: galium (catchweed bedstraw, Galium aparine); experiment: Test C pre-/postemergence: galium
Summary of the method: (§1)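 Preemergence on seeds in loam/sand, postemergence on 2–18 cm (1–4-leaf) plants in peat-based medium; compounds in non-phytotoxic solvent with surfactant. After 13–15 days in greenhouse, visual rating versus controls, 0 (no effect) to 100 (complete control).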

[2] = tested on: morningglory (Ipomoea coccinea); experiment: Test C pre-/postemergence: morningglory
Summary of the method: as §1

[3] = tested on: crabgrass, large (large crabgrass, Digitaria sanguinalis); experiment: Test A pre-/postemergence: crabgrass, large; settings: Digitaria sanguinalis, 240 h; for pest or weed control at 125 g/ha: 125 g ai/ha; for pest or weed control at 500 g/ha: 500 g ai/ha
Summary of the method: (§2)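 Compounds, formulated with surfactant in non-phytotoxic solvent, were applied as a directed soil spray preemergence and as postemergence sprays to 2–10 cm, one- to two-leaf seedlings grown in loam soil blended with sand; visual injury, 0–100, assessed ~10 days post-treatment against untreated controls.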

[4] = tested on: bromegrass, downy (downy bromegrass, Bromus tectorum); experiment: Test C pre-/postemergence: bromegrass, downy
Summary of the method: as §1

[5] = tested on: morningglory (Ipomoea spp.); experiment: Test A pre-/postemergence: morningglory; settings: Ipomoea, 240 h; for pest or weed control at 125 g/ha: 125 g ai/ha; for pest or weed control at 500 g/ha: 500 g ai/ha
Summary of the method: as §2

[6] = tested on: velvetleaf (Abutilon theophrasti); experiment: Test A pre-/postemergence: velvetleaf; settings: Abutilon theophrasti, 240 h; for pest or weed control at 125 g/ha: 125 g ai/ha; for pest or weed control at 500 g/ha: 500 g ai/ha
Summary of the method: as §2

[7] = tested on: nightshade (eastern black nightshade, Solanum ptycanthum); experiment: Test C pre-/postemergence: nightshade; settings: Preemergence
Summary of the method: as §1

[8] = tested on: blackgrass (Alopecurus myosuroides); experiment: Test C pre-/postemergence: blackgrass
Summary of the method: as §1

[9] = tested on: johnsongrass (Sorghum halepense); experiment: Test C pre-/postemergence: johnsongrass
Summary of the method: as §1

[10] = tested on: foxtail, giant (giant foxtail, Setaria faberii); experiment: Test A pre-/postemergence: foxtail, giant; settings: Setaria faberi, 240 h; for pest or weed control at 125 g/ha: 125 g ai/ha; for pest or weed control at 500 g/ha: 500 g ai/ha
Summary of the method: as §2

[11] = Postemergence, 31 g ai/ha, scale 0 to 100 (0 no effect, 100 complete control)
[12] = Postemergence, 62 g ai/ha, scale 0 to 100 (0 no effect, 100 complete control)
[13] = Postemergence, 125 g ai/ha, scale 0 to 100, 0 no effect, 100 complete control
[14] = Postemergence, 250 g ai/ha, scale 0 to 100
[15] = Preemergence, 31 g ai/ha, scale of 0 to 100, 0 is no effect, 100 is complete control
[16] = Preemergence, 62 g ai/ha, scale of 0 to 100, 0 is no effect, 100 is complete control
[17] = Preemergence, 125 g ai/ha, scale 0 to 100, 0 no effect, 100 complete control
[18] = Preemergence, 250 g ai/ha, scale 0 to 100, 0 no effect, 100 complete control
[19] = Preemergence, 62 g ai/ha, scale 0 to 100, 0 no effect, 100 complete control

Structure (SMILES): FC(F)(F)COc1nn(-c2ccc(C(F)(F)F)cc2)nc1Cc1ccnc(C(F)(F)F)c1 [Compound 14, 4-[[5-(2,2,2-trifluoroethoxy)-2-[4-(trifluoromethyl)phenyl]-2H-1,2,3-triazol-4-yl]methyl]-2-(trifluoromethyl)pyridine]
- Plant response rating, Galium [1, 11]: 60
- Plant response rating, Galium [1, 12]: 80
- Plant response rating, Galium [1, 13]: 80
- Plant response rating, Galium [1, 14]: 80
- Plant response rating, Galium [1, 15]: 20
- Plant response rating, Galium [1, 16]: 90
- Plant response rating, Galium [1, 17]: 100
- Plant response rating, Galium [1, 18]: 100
- Plant response rating, Morningglory [2, 11]: 75
- Plant response rating, Morningglory [2, 12]: 80
- Plant response rating, Morningglory [2, 13]: 80
- Plant response rating, Morningglory [2, 14]: 95
- Plant response rating, Morningglory [2, 15]: 10
- Plant response rating, Morningglory [2, 16]: 10
- Plant response rating, Morningglory [2, 17]: 55
- Plant response rating, Morningglory [2, 18]: 65
- pest or weed control at 125 g/ha ([3]; post-emergence, Postemergence, 0 to 100 scale, 0 is no effect, 100 is complete control, read-out: Crabgrass, Large plant response rating): 80%
- pest or weed control at 500 g/ha ([3]; post-emergence, Postemergence, visual rating on 0 to 100 scale (0 no effect, 100 complete control), approximately ten days, read-out: Crabgrass, Large plant response rating): 90%
- pest or weed control at 125 g/ha ([3]; pre-emergence, Preemergence, 0 to 100 scale (0 no effect, 100 complete control), read-out: Plant response rating, Crabgrass, Large): 90%
- pest or weed control at 500 g/ha ([3]; pre-emergence, Preemergence, 0 to 100 scale, 0 is no effect, 100 is complete control, read-out: Plant response rating, Crabgrass, Large): 100%
- Plant response rating, Bromegrass, Downy [4, 11]: 30
- Plant response rating, Bromegrass, Downy [4, 12]: 40
- Plant response rating, Bromegrass, Downy [4, 13]: 40
- Plant response rating, Bromegrass, Downy [4, 14]: 45
- Plant response rating, Bromegrass, Downy [4, 15]: 30
- Plant response rating, Bromegrass, Downy [4, 19]: 35
- Plant response rating, Bromegrass, Downy [4, 17]: 60
- Plant response rating, Bromegrass, Downy [4, 18]: 98
- pest or weed control at 125 g/ha ([5]; post-emergence, Postemergence, 0 to 100 scale, 0 is no effect, 100 is complete control, read-out: Morningglory plant response rating): 80%
- pest or weed control at 500 g/ha ([5]; post-emergence, Postemergence, visual rating on 0 to 100 scale (0 no effect, 100 complete control), approximately ten days, read-out: Morningglory plant response rating): 100%
- pest or weed control at 125 g/ha ([5]; pre-emergence, Preemergence, 0 to 100 scale (0 no effect, 100 complete control), read-out: Plant response rating, Morningglory): 60%
- pest or weed control at 500 g/ha ([5]; pre-emergence, Preemergence, 0 to 100 scale, 0 is no effect, 100 is complete control, read-out: Plant response rating, Morningglory): 80%
- pest or weed control at 125 g/ha ([6]; post-emergence, Postemergence, 0 to 100 scale, 0 is no effect, 100 is complete control, read-out: Velvetleaf plant response rating): 100%
- pest or weed control at 500 g/ha ([6]; post-emergence, Postemergence, visual rating on 0 to 100 scale (0 no effect, 100 complete control), approximately ten days, read-out: Velvetleaf plant response rating): 100%
- pest or weed control at 125 g/ha ([6]; pre-emergence, Preemergence, 0 to 100 scale (0 no effect, 100 complete control), read-out: Plant response rating, Velvetleaf): 70%
- pest or weed control at 500 g/ha ([6]; pre-emergence, Preemergence, 0 to 100 scale, 0 is no effect, 100 is complete control, read-out: Plant response rating, Velvetleaf): 90%
- Plant response rating, Nightshade ([7]; 31 g ai/ha, scale of 0 to 100, 0 is no effect, 100 is complete control): 55
- Plant response rating, Nightshade ([7]; 62 g ai/ha, scale of 0 to 100, 0 is no effect, 100 is complete control): 80
- Plant response rating, Nightshade ([7]; 125 g ai/ha, scale 0 to 100, 0 no effect, 100 complete control): 95
- Plant response rating, Nightshade ([7]; 250 g ai/ha, scale 0 to 100, 0 no effect, 100 complete control): 98
- Plant response rating, Blackgrass [8, 11]: 15
- Plant response rating, Blackgrass [8, 12]: 40
- Plant response rating, Blackgrass [8, 13]: 60
- Plant response rating, Blackgrass [8, 14]: 85
- Plant response rating, Blackgrass [8, 15]: 5
- Plant response rating, Blackgrass [8, 19]: 40
- Plant response rating, Blackgrass [8, 17]: 85
- Plant response rating, Blackgrass [8, 18]: 98
- Plant response rating, Johnsongrass [9, 11]: 20
- Plant response rating, Johnsongrass [9, 12]: 20
- Plant response rating, Johnsongrass [9, 13]: 55
- Plant response rating, Johnsongrass [9, 14]: 75
- Plant response rating, Johnsongrass [9, 15]: 20
- Plant response rating, Johnsongrass [9, 16]: 45
- Plant response rating, Johnsongrass [9, 17]: 80
- Plant response rating, Johnsongrass [9, 18]: 85
- pest or weed control at 125 g/ha ([10]; post-emergence, Postemergence, 0 to 100 scale, 0 is no effect, 100 is complete control, read-out: Foxtail, Giant plant response rating): 80%
- pest or weed control at 500 g/ha ([10]; post-emergence, Postemergence, visual rating on 0 to 100 scale (0 no effect, 100 complete control), approximately ten days, read-out: Foxtail, Giant plant response rating): 90%
- pest or weed control at 125 g/ha ([10]; pre-emergence, Preemergence, 0 to 100 scale (0 no effect, 100 complete control), read-out: Plant response rating, Foxtail, Giant): 100%
- pest or weed control at 500 g/ha ([10]; pre-emergence, Preemergence, 0 to 100 scale, 0 is no effect, 100 is complete control, read-out: Plant response rating, Foxtail, Giant): 100%
